Data as given in publication PMC7998669, “7-(2-Anilinopyrimidin-4-yl)-1-benzazepin-2-ones Designed by a “Cut and Glue” Strategy Are Dual Aurora A/VEGF-R Kinase Inhibitors” (Molecules, 2021).

What was measured:
Experiment in all cases: radiometric 33PanQinase protein kinase assay
Format in all cases: biochemical
Settings in all cases: radiometric assay, 1 µM ATP
[1] = target: T1, VEGF-R2 (Homo sapiens, UniProt P35968)
T1 construct: host or cells: Sf9 (baculovirus)
Procedure: (§1) The inhibitory activity of prototype 2a was determined in a panel of 24 tumor-relevant protein kinases using a radiometric assay. Only the kinases Aurora A, VEGF-R2 and VEGF-R3 were inhibited with single digit micromolar IC50 values (Table 2). Structural modifications were then implemented, particularly directed to improve inhibition of Aurora A. The so-designed congeners with small substituents at the aniline ring 2b–2n were examined for inhibition of Aurora A and of VEGF-R2, VEGF-R3 and Aurora B for comparison (Table 3).
(§2) The screening for protein kinase inhibition was performed with the radiometric ^33Panqinase activity assay at Reaction Biology Europe GmbH (Freiburg) using a robotic system (Beckmann Coulter/SagianRoboter) and 96-well plates (FlashPlates, Perkin/Elmer/NEN, Boston, MA, USA). In brief, the transfer of ^33P-phosphate into the substrate was measured with a microplate scintillation counter (Microbeta Trilux, Wallace). Protein kinases were expressed in Sf9 cells as recombinant glutathione S-transferase (GST) or polyhistidine (His)-tagged proteins in baculovirus. Isolation and purification of expressed kinases were performed with affinity chromatography by using GSH agarose (Sigma) or Ni-NTA agarose (Qiagen). The standard solution for each enzyme contained: 60 mM HEPES-NaOH (pH 7.5), 3 mM MgCl2, 3 µM sodium orthovanadate, 1.2 mM DTT, 50 µg/mL PEG20000 and 1 µM [γ-^33P]-ATP (approximately 5 × 10^5 cpm per well). In chronological order the reaction mixture was prepared: 20 µL standard solution, 5 µL ATP solution in water, 5 µL of the compound in 10% DMSO and 20 µL of enzyme/substrate mixture (50:50). Each kinase contained different substrates in different concentrations: 125 ng/50 µL Poly(Glu, Tyr)4:1 for 20 ng/50 µL IGF1-R, 25 ng/50 µL IGF1-R, 20 ng/50 µL EGF-R, 25 ng/50 µL EGF-R, 40 ng/50 µL EGF-R, 10 ng/50 µL EPHB4, 20 ng/50 µL EPHB4, 200 ng/50 µL ERBB2, 10 ng/50 µL SRC, 100 ng/50 µL FAK, 200 ng/50 µL FAK, 50 ng/50 µL VEGF-R2, 100 ng/50 µL VEGF-R3, 200 ng/50 µLTIE2; 250 ng/50 µL Poly(Glu, Tyr)4:1 for 200 ng/50 µL TIE2; 500 ng/50 µL tetra (LRRWSLG) for 50 ng/50 µL Aurora-A, 25 ng/50 µL PAK4, 25 ng/50 µL PDK1; 250 ng/50 µL tetra (LRRWSLG) for 50 ng/50 µL Aurora-B, 200 ng/50 µL Aurora-B; 125 ng/50 µL Histon H1 for 100 ng/50 µL CDK2/CycA; 250 ng/50 µL Rb-CTF for 50 ng/50 µL CDK/CycD1; 500 ng/50 µL Rb-CTF for 50 ng/50 µL CDK4/CycD1; 125 ng/50 µL Poly(ala, Glu, Lys, Tyr)6:2:5:1 for 25 ng/50 µL INS-R, 50 ng/50 µL PDGFR-beta, 100 ng/50 µL PDGFR-beta, 100 ng/50 µL FLT3, 150 ng/50 µL FLT3, 20 ng/50 µL MET, 50 ng/50 µL MET, 100 ng/50 µL MET; 250 ng/50 µL Casein for 200 ng/50 µL CK2-alpha1, 200 ng/50 µL PLK1; 1000 ng/50 µL Casein for 200 ng/50 µL PLK1, 200 ng/50 µL CK2-alpha1; 1000 ng/50 µLGSK3 (14–27) for 100 ng/50 µL AKT1; 125 ng/50 µL p53-CTM for 150 ng/50 µL CK2-alpha1, 200 ng/50 µLCK2-alpha1; 250 ng/50 µL MEK-KM for 20 ng/50 µL B-RAF-VE; autophosphorylation at ARK5, COT and SAK. After incubation (80 min, 30 °C) the reaction was stopped by adding 50 µL 2% (v/v) phosphoric acid to the reaction mixture. The microplate was washed twice with 200 µL 0.9% (v/v) saturated sodium chloride or water. The measured radioactivity, conditioned by the incorporation of [γ-^33P]-phosphate, is proportional to kinase activity. Furthermore, low control and high control were measured to determine the residual activity (%). As low controls, mixtures with substrate, but without enzyme were used to determine the unspecific binding of [γ-^33P]-phosphate to the well plate. Mixtures with enzyme, but without inhibitor were used as high controls to determine maximum enzyme activity. The IC50-values of the distinct compounds were calculated with Quattro Workflow V1.1.0.8 (Quattro Research GmbH, München, Germany). Dose response curves were generated by measurement of the residual activity of ten different inhibitor concentrations (0.1 mM, 30.0 µM, 10 µM, 3.0 µM, 1.0 µM, 0.3 µM, 0.1 µM, 30.0 nM, 10.0 nM and 3.0 nM). […]

[2] = target: T2, VEGF-R3 (Homo sapiens, UniProt P35916)
T2 construct: host or cells: Sf9 (baculovirus)
Procedure: as §1, §2

[3] = target: T3, Aurora-A (Homo sapiens, UniProt O14965)
T3 construct: host or cells: Sf9 (baculovirus)
T3 sequence (O14965 1-403): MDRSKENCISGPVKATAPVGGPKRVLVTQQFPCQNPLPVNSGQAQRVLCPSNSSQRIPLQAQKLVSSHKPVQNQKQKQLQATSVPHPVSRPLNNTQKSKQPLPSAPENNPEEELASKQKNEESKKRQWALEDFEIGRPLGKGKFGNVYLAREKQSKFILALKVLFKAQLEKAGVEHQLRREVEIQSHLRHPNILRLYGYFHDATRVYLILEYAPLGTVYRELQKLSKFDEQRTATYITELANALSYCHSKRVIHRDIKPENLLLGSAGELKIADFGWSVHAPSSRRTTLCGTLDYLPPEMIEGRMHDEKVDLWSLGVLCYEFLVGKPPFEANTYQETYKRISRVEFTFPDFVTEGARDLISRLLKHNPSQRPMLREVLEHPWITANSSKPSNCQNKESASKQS
Procedure: as §1, §2

[4] = target: T4, Aurora-B (Homo sapiens, UniProt Q96GD4)
T4 construct: host or cells: Sf9 (baculovirus)
Procedure: as §1, §2

T2 sequence (P35916 25-1363): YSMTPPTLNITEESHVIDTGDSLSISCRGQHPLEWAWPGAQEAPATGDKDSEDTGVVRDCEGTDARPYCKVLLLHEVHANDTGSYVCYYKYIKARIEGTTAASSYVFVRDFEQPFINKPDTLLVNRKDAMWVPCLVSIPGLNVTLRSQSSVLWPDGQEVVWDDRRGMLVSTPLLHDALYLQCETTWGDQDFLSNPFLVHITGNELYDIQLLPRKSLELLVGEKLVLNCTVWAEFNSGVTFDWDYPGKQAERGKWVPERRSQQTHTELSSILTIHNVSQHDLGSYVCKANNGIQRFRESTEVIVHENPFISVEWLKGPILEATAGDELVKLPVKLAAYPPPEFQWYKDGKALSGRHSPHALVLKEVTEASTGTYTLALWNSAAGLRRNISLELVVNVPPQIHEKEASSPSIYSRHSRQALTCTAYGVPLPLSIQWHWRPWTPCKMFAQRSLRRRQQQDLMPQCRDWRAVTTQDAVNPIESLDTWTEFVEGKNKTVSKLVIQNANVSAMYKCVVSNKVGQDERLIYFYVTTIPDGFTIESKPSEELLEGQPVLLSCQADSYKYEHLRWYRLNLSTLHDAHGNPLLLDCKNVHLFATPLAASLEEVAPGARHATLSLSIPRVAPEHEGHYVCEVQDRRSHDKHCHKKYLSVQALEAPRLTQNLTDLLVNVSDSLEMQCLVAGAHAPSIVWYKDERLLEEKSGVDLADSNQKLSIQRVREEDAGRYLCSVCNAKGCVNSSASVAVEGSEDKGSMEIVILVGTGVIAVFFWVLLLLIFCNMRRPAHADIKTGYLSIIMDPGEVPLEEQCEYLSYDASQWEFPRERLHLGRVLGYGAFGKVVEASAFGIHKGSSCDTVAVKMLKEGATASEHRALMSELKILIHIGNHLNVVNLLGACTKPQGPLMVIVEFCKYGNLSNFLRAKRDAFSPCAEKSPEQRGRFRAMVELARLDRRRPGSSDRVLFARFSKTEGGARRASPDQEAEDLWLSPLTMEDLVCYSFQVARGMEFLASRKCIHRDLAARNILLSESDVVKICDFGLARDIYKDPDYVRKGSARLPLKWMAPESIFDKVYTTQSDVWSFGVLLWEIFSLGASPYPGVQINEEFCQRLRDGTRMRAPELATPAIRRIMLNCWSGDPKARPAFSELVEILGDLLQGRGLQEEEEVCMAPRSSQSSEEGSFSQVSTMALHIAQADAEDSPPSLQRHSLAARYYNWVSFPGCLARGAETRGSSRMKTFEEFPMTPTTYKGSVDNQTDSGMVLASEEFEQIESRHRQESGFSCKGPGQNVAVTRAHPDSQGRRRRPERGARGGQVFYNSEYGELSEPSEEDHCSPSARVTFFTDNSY
T4 sequence (Q96GD4 whole entry): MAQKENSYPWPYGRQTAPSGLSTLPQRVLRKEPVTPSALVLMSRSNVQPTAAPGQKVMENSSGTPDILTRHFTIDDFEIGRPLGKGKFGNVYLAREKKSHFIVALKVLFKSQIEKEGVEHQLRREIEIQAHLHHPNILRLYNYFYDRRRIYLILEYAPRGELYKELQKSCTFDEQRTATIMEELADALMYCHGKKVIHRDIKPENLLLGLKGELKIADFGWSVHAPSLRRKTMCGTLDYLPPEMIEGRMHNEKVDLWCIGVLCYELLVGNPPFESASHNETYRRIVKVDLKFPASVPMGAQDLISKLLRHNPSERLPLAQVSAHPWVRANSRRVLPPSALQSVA
T1 sequence (P35968 20-1356): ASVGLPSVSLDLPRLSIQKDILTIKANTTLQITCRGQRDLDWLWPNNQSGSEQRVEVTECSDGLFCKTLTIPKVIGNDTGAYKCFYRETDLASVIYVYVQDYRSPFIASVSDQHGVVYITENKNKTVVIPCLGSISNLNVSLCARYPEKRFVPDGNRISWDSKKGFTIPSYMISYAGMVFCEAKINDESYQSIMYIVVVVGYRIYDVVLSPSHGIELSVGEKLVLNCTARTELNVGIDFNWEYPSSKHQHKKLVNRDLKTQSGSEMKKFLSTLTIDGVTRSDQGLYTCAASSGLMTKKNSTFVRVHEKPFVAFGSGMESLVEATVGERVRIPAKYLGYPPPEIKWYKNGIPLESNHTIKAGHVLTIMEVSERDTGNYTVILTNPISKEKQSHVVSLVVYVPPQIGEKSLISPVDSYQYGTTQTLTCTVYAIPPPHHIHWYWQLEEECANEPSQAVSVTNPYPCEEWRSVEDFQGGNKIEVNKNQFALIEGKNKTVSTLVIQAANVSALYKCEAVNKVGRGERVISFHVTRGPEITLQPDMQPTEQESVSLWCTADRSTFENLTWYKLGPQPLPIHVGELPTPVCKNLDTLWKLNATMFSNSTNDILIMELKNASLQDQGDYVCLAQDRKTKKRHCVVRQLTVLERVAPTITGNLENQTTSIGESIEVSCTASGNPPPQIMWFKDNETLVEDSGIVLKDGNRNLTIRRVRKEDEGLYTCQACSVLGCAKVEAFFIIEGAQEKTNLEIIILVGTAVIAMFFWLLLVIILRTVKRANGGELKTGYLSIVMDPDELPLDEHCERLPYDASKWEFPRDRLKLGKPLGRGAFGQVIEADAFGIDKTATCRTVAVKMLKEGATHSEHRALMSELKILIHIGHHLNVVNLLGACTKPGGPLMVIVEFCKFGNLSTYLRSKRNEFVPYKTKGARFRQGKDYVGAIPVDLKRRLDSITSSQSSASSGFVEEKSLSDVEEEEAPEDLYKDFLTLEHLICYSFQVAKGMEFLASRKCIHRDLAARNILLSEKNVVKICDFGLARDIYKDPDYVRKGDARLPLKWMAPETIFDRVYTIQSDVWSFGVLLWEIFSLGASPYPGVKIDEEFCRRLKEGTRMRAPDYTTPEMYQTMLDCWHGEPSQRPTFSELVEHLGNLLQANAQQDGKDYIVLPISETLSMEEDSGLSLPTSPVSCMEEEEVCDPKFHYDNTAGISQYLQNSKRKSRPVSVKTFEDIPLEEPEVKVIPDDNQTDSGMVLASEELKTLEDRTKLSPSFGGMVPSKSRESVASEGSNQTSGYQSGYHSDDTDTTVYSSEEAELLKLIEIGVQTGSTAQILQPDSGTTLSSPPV

Row | Structure (SMILES) | IC50 [1] [nM] | IC50 [2] [nM] | IC50 [3] [nM] | IC50 [4] [nM]
1 | O=C1CCCc2cc(-c3ccnc(Nc4ccc(O)cc4)n3)ccc2N1 [Compound 2e, 7-[2-(4-Hydroxyanilino)pyrimidin-4-yl]-1,3,4,5-tetrahydro-2H-1-benzazepin-2-one] | 1100 | 1500 | 990 | 3500
2 | COc1ccc(Nc2nccc(-c3ccc4c(c3)CCCC(=O)N4)n2)cc1O [Compound 2n, 7-[2-(3-Hydroxy-4-methoxyanilino)pyrimidin-4-yl]-1,3,4,5-tetrahydro-2H-1-benzazepin-2-one] | 630 | 550 | 1400 | 4500
3 | O=C1CCCc2cc(-c3ccnc(Nc4ccccc4)n3)ccc2N1 [Compound 2a, 7-(2-Anilinopyrimidin-4-yl)-1,3,4,5-tetrahydro-2H-1-benzazepin-2-one] | 2800 | 5900 | 2400 | 26000
